According to paper PMC6151560, “Antibacterial and Antitubercular Activities of Cinnamylideneacetophenones” (Molecules : A Journal of Synthetic Chemistry and Natural …, 2017):
In brackets after ≈: the same amount, converted by molar mass. Like-named read-outs stand apart in the source and are kept apart here.

Tests used:
[1] = system: Pseudomonas aeruginosa (ATCC 15442); test: Antibacterial broth microdilution (MIC), P. aeruginosa; conditions: for MIC: ATCC15442, 24 h, read-out: Pa MIC
[2] = system: Mycobacterium tuberculosis H37Rv (ATCC 27294); test: Antitubercular REMA (Resazurin Microtiter Assay); assay type: cell-based; conditions: M. tuberculosis H37Rv, REMA, 7 days, lowest concentration giving 90% inhibition of growth, read-out: Mt MIC
[3] = system: Streptococcus sanguinis (ATCC 10557); test: Antibacterial broth microdilution (MIC/MBC), S. sanguinis; conditions: for MIC: ATCC10557, 24 h; for MBC: ATCC10557, read-out: Ss MBC
[4] = system: Staphylococcus aureus (ATCC 14458); test: Antibacterial broth microdilution (MIC/MBC), S. aureus; conditions: for MIC: ATCC14458, 24 h
[5] = system: Escherichia coli (ATCC 10536); test: Antibacterial broth microdilution (MIC), E. coli; conditions: for MIC: ATCC10536, 24 h, read-out: Ec MIC
[6] = Partition coefficient log Po/w by HPLC-PDA (OECD method); conditions: for chromatographic logP: n-octanol/water (from HPLC retention on a C-18 column)
[7] = system: Streptococcus mutans (ATCC 25175); test: Antibacterial broth microdilution (MIC/MBC), S. mutans; conditions: for MIC: ATCC25175, 24 h, read-out: Sm MIC, Streptococcus mutans, broth microdilution, 24 h, tested 3.9 to 500 µM
[8] = DPPH radical scavenging ability; conditions: at 1600, 800, 400, and 200 µM; DPPH 100 μM, 30 min, 25 °C
Excerpt: The low selectivity of the cinnamylideneacetophenones 3 and 4 can be correlated with their phenolic nature. Studies report the ability of phenolic compounds to act on widespread radical processes shared by eukaryotic and prokaryotic cells. We hypothesized this behavior may be responsible by simultaneous activity toward bacteria and pulmonary cells. Therefore, we evaluated the radical scavenging ability of 3 and 4 using DPPH (2,2-diphenyl-1-picrylhydrazyl) protocol. […] Altogether, low selectivity of 3 and 4 cannot be strongly related to radical processes. Quercetin and gallic acid were used as positive controls due to their phenolic nature and potent radical scavenging ability.
Radical scavenging activity of compounds 3 and 4 was determined using 2,2-diphenyl-1-picrylhydrazyl (DPPH). Aliquots of 10 µL of 3, 4, and positive controls (quercetin and gallic acid) at concentrations 1600, 800, 400, and 200 μM (in EtOH) were individually added in 190 µL DPPH (100 μM). The mixtures were incubated in the dark at 25 °C for 30 min. Remaining DPPH was determined spectroscopically at 490 nm by blanking against absolute ethanol. Radical scavenging ability was expressed by using mean values obtained from triplicates as the percentage of radicals reduced by calculating the following equation: DPPH scavenging % = [1 − (Asample/A) × 100], where A is test absorbance without sample (only EtOH and DPPH) and Asample is test absorbance with compounds.

[9] = Mycobacterium tuberculosis, 168 h
[10] = read-out: Ss MIC, Streptococcus sanguinis, broth microdilution, 24 h, tested 3.9 to 500 µM
[11] = read-out: Sa MIC, Staphylococcus aureus, broth microdilution, 24 h, tested 3.9 to 500 µM
[12] = broth microdilution, 24 h, tested 3.9 to 500 µM

Row | Compound | MIC [1] [µM] | MIC [2, 9] [µM] | MIC [3, 10] [µM] | MIC [4, 11] [µM] | MIC [5] [µM] | chromatographic logP [6] | MIC [7] [µM] | also measured
1 | O=C(/C=C/C=C/c1ccccc1)c1cccc(C(F)(F)F)c1 [Compound 14, (2E,4E)-1-(3-(trifluoromethyl)phenyl)-5-phenylpenta-2,4-dien-1-one] | > 500 | > 200 | > 500 | > 500 | > 500 | 3.7 | > 500 | 
2 | O=C(/C=C/C=C/c1ccccc1)c1cccc([N+](=O)[O-])c1 [Compound 15, (2E,4E)-1-(3-nitrophenyl)-5-phenylpenta-2,4-dien-1-one] | > 500 | > 200 | > 500 | > 500 | > 500 | 3.3 | > 500 | 
3 | O=C(/C=C/C=C/c1ccccc1)c1ccc([N+](=O)[O-])cc1 [Compound 16, (2E,4E)-1-(4-nitrophenyl)-5-phenylpenta-2,4-dien-1-one] | > 500 | > 200 | > 500 | > 500 | > 500 | 3.2 | > 500 | 
4 | Cc1cccc(C(=O)/C=C/C=C/c2ccccc2)c1 [Compound 17, (2E,4E)-1-(3-methylphenyl)-5-phenylpenta-2,4-dien-1-one] | > 500 | > 200 | > 500 | > 500 | > 500 | 3.6 | > 500 | 
5 | Cc1ccc(C(=O)/C=C/C=C/c2ccccc2)cc1 [Compound 18, (2E,4E)-1-(4-methylphenyl)-5-phenylpenta-2,4-dien-1-one] | > 500 | 57.2 to 70.9 (≈ 14.2 to 17.6 µg/mL) | > 500 | > 500 | > 500 | 3.5 | > 500 | MIC [2]: 70.9 µM (≈ 17.6 µg/mL)
6 | NNC(=O)c1ccncc1 [ISO, isoniazid, reference compound] |  | 0.3 (≈ 0.0411 µg/mL) |  |  |  |  |  | 
7 | CC1(C)S[C@@H]2[C@H](NC(=O)Cc3ccccc3)C(=O)N2[C@H]1C(=O)O [PEN, Penicillin G, reference compound] |  |  | 0.4 (≈ 0.134 µg/mL) |  | 118 (≈ 39.5 µg/mL) |  |  | MBC [3]: 0.4 µM (≈ 0.134 µg/mL)
8 | O=c1c(O)c(-c2ccc(O)c(O)c2)oc2cc(O)cc(O)c12 [Quercetin, reference compound] |  |  |  |  |  |  |  | percentages of DPPH scavenging ability [8]: ≥ 95%
9 | CN[C@H](CC(C)C)C(=O)N[C@H]1C(=O)N[C@@H](CC(N)=O)C(=O)N[C@H]2C(=O)N[C@H]3C(=O)N[C@H](C(=O)N[C@H](C(=O)O)c4cc(O)cc(O)c4-c4cc3ccc4O)[C@H](O)c3ccc(c(Cl)c3)Oc3cc2cc(c3O[C@@H]2O[C@H](CO)[C@@H](O)[C@H](O)[C@H]2O[C@H]2C[C@](C)(N)[C@H](O)[C@H](C)O2)Oc2ccc(cc2Cl)[C@H]1O [VAN, vancomycin, reference compound] |  |  |  |  | 53.8 (≈ 78 µg/mL) |  |  | MIC ([3]; read-out: Ss MIC): 3.3 µM (≈ 4.78 µg/mL); MBC [3]: 3.3 µM (≈ 4.78 µg/mL); MIC ([4]; read-out: Sa MIC): 3.3 µM (≈ 4.78 µg/mL); MBC ([4]; ATCC14458, read-out: Sa MBC): 6.8 µM (≈ 9.86 µg/mL)
10 | O=C(O)c1cc(O)c(O)c(O)c1 [gallic acid, reference compound] |  |  |  |  |  |  |  | percentages of DPPH scavenging ability [8]: ≥ 95%
11 | (2E,4E)-1-(3,4-methylenedioxy)-5-phenylpenta-2,4-dien-1-one [Compound 8] |  |  |  |  |  |  |  | Pa MIC ([1]; broth microdilution, 24 h): >500 µM; Ss MIC [3, 12]: >500 µM; Sa MIC [4, 12]: >500 µM; Ec MIC ([5]; broth microdilution, 24 h): >500 µM; log Po/w ([6]; n-octanol/water, HPLC-PDA method, MeOH:H2O (3:1)): 3.2; Sm MIC [7, 12]: >500 µM
